The results in this text go back to US8048892B2, “Azaquinolone based compounds exhibiting prolyl hydroxylase inhibitory activity, compositions, and uses thereof” (Amgen Inc., priority 2006, dated 2011).

Structures can show the parent of a compound that is named as a salt.

For orientation: IC50 means the concentration needed to halve the response being measured. Lower therefore signals inhibition by little substance.

Sequence of HIF PHD2 (Q9GZT9 whole entry): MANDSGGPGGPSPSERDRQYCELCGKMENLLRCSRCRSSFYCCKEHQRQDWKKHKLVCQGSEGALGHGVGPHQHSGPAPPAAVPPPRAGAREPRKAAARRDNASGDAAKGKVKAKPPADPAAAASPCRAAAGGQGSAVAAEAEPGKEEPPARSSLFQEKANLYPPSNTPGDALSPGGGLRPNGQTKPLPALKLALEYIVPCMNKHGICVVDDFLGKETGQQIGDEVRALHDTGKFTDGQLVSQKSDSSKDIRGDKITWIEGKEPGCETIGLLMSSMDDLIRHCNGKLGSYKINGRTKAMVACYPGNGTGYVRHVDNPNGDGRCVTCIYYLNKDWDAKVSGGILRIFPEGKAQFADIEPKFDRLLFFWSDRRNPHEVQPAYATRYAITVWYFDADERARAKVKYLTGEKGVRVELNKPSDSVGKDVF

The experiment addresses HIF PHD2 (Homo sapiens, UniProt Q9GZT9). The experiment can be described thus: PHD2 inhibition assay (TR-FRET, VCB-Eu detection of hydroxylated P564-HIF1α peptide). The format is biochemical. The following applies: 2 nM PHD2, 100 nM P564-HIF1α peptide, 0.25 μM 2-oxoglutarate. An outline of the steps:
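Human PHD2 (2 nM final) preincubated 1 h at room temperature with compound and 100 μM FeCl2 in pH 6 MES buffer, 5% DMSO final. Reaction with 100 nM biotinylated P564-HIF1α peptide, 2 mM ascorbate and 0.25 μM 2-oxoglutarate for 1 h, stopped with succinate. Hydroxylation read by TR-FRET (VCB-Eu/streptavidin-APC, 655/615 nm); IC50 from 4-parameter fit of percent of control.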
Take `Cn1c(=O)c(C(=O)NCC(=O)O)c(O)c2ccncc21` [Example 112, N-((4-Hydroxy-1-methyl-2-oxo-1,2-dihydro-1,7-naphthyridin-3-yl)carbonyl)glycine]: the half-inhibitory concentration (IC50) is 0.05 to 0.1 µM.

`CC(C)c1cc2c(O)c(C(=O)NCC(=O)O)c(=O)n(C)c2cn1` [Example 113, N-((4-Hydroxy-1-methyl-6-(1-methylethyl)-2-oxo-1,2-dihydro-1,7-naphthyridin-3-yl)carbonyl)glycine] gave an IC50 of less than 0.05 µM. For `Cn1c(=O)c(C(=O)NCC(=O)O)c(O)c2cc(C3=CCNCC3)ncc21` [Example 114, 2-(4-Hydroxy-1-methyl-2-oxo-6-(1,2,3,6-tetrahydropyridin-4-yl)-1,2-dihydro-1,7-naphthyridine-3-carboxamido)acetic acid, Trifluoroacetic acid salt] the value was 0.05 to 0.1 µM. For `Cn1c(=O)c(C(=O)NCC(=O)O)c(O)c2cc(C3CCNCC3)ncc21` [Example 115, 2-(4-Hydroxy-1-methyl-2-oxo-6-(piperidin-4-yl)-1,2-dihydro-1,7-naphthyridine-3-carboxamido)acetic acid, Trifluoroacetic acid salt] the value was 0.05 to 0.1 µM.

`CN1CC=C(c2cc3c(O)c(C(=O)NCC(=O)O)c(=O)n(C)c3cn2)CC1` [Example 116, 2-(4-Hydroxy-1-methyl-6-(1-methyl-1,2,3,6-tetrahydropyridin-4-yl)-2-oxo-1,2-dihydro-1,7-naphthyridine-3-carboxamido)acetic acid, Trifluoroacetic acid salt] showed a half-maximal inhibitory concentration (IC50) of less than 0.05 µM. `CN1CCC(c2cc3c(O)c(C(=O)NCC(=O)O)c(=O)n(C)c3cn2)CC1` [Example 117, 2-(4-Hydroxy-1-methyl-6-(1-methylpiperidin-4-yl)-2-oxo-1,2-dihydro-1,7-naphthyridine-3-carboxamido)acetic acid, Trifluoroacetic acid salt] had an IC50 of less than 0.05 µM. In the case of `CC(=O)N1CC=C(c2cc3c(O)c(C(=O)NCC(=O)O)c(=O)n(C)c3cn2)CC1` [Example 118, 2-(6-(1-Acetyl-1,2,3,6-tetrahydropyridin-4-yl)-4-hydroxy-1-methyl-2-oxo-1,2-dihydro-1,7-naphthyridine-3-carboxamido)acetic acid, Trifluoroacetic acid salt], the half-maximal inhibitory concentration (IC50) is less than 0.05 µM. `CC(=O)N1CCC(c2cc3c(O)c(C(=O)NCC(=O)O)c(=O)n(C)c3cn2)CC1` [Example 119, 2-(6-(1-Acetylpiperidin-4-yl)-4-hydroxy-1-methyl-2-oxo-1,2-dihydro-1,7-naphthyridine-3-carboxamido)acetic acid, Trifluoroacetic acid salt]: the IC50 was less than 0.05 µM. `Cn1c(=O)c(C(=O)NCC(=O)O)c(O)c2cc(N3CCOCC3)ncc21` [Example 120, 2-(4-Hydroxy-1-methyl-6-morpholino-2-oxo-1,2-dihydro-1,7-naphthyridine-3-carboxamido)acetic acid, Trifluoroacetic acid salt] displayed an IC50 of less than 0.05 µM. `Cn1c(=O)c(C(=O)NCC(=O)O)c(O)c2cc(N3CCCCC3)ncc21` [Example 121, 2-(4-Hydroxy-1-methyl-2-oxo-6-(piperidin-1-yl)-1,2-dihydro-1,7-naphthyridine-3-carboxamido)acetic acid, Trifluoroacetic acid salt]: the IC50 lay within 0.05 to 0.1 µM. In turn, `CN1CCN(c2cc3c(O)c(C(=O)NCC(=O)O)c(=O)n(C)c3cn2)CC1` [Example 122, 2-(4-Hydroxy-1-methyl-6-(4-methylpiperazin-1-yl)-2-oxo-1,2-dihydro-1,7-naphthyridine-3-carboxamido)acetic acid, Trifluoroacetic acid salt] returned an IC50 of 0.1 to 0.5 µM. Regarding `Cn1c(=O)c(C(=O)NCC(=O)O)c(O)c2cc(Cl)[n+]([O-])cc21` [Example 123, 2-(6-Chloro-4-hydroxy-1-methyl-2-oxo-1,2-dihydro-1,7-naphthyridine-3-carboxamido)acetic acid, N-oxide], the IC50 was less than 0.05 µM. Regarding `Cn1c(=O)c(C(=O)NCC(=O)O)c(O)c2cc(-c3ccccc3)nc(C(F)(F)F)c21` [Example 124, 2-(4-Hydroxy-1-methyl-2-oxo-6-phenyl-8-(trifluoromethyl)-1,2-dihydro-1,7-naphthyridine-3-carboxamido)acetic acid], the concentration for half-maximal inhibition (IC50) was 0.1 to 0.5 µM. The compound `Cc1ccccc1-c1cc2c(O)c(C(=O)NCC(=O)O)c(=O)n(C)c2c(C(F)(F)F)n1` [Example 125, N-((4-Hydroxy-1-methyl-6-(2-methylphenyl)-2-oxo-8-(trifluoromethyl)-1,2-dihydro-1,7-naphthyridin-3-yl)carbonyl)glycine] gave an IC50 of less than 0.05 µM. In the case of `Cn1c(=O)c(C(=O)NCC(=O)O)c(O)c2ccnc(Cl)c21` [Example 126, 2-(8-Chloro-4-hydroxy-1-methyl-2-oxo-1,2-dihydro-1,7-naphthyridine-3-carboxamido)acetic acid], the IC50 is 0.05 to 0.1 µM. `Cn1c(=O)c(C(=O)NCC(=O)O)c(O)c2ccnc(C(F)(F)F)c21` [Example 127, 2-(4-Hydroxy-1-methyl-2-oxo-8-(trifluoromethyl)-1,2-dihydro-1,7-naphthyridine-3-carboxamido)acetic acid] returned an IC50 of less than 0.05 µM.

Consider `Cn1c(=O)c(C(=O)NCC(=O)O)c(O)c2ccnc(-c3ccccc3)c21` [Example 128, 2-(4-Hydroxy-1-methyl-2-oxo-8-phenyl-1,2-dihydro-1,7-naphthyridine-3-carboxamido)acetic acid], for which the IC50 is less than 0.05 µM. Consider `Cn1c(=O)c(C(=O)NCC(=O)O)c(O)c2c(NCC(=O)O)nccc21` [Example 129, 2-{4-Hydroxy-1-methyl-2-oxo-3-[(carboxymethyl)carbamoyl]-1,2-dihydro-1,6-naphthyridin-5-ylamino}acetic acid, Trifluoroacetic acid salt], for which the IC50 is less than 0.05 µM. For the compound `Cn1c(=O)c(C(=O)NCC(=O)O)c(O)c2c(Br)nccc21` [Example 130, 2-(5-Bromo-4-hydroxy-1-methyl-2-oxo-1,2-dihydro-1,6-naphthyridine-3-carboxamido)acetic acid, Trifluoroacetic acid salt], the concentration for half-maximal inhibition (IC50) is less than 0.05 µM. Compound `Cn1c(=O)c(C(=O)NCC(=O)O)c(O)c2c(Cl)nccc21` [Example 131, 2-(5-Chloro-4-hydroxy-1-methyl-2-oxo-1,2-dihydro-1,6-naphthyridine-3-carboxamido)acetic acid] came in with an IC50 of less than 0.05 µM. Next, `Cn1c(=O)c(C(=O)NCC(=O)O)c(O)c2c(C(F)(F)F)nccc21` [Example 132, 2-(4-Hydroxy-1-methyl-2-oxo-5-(trifluoromethyl)-1,2-dihydro-1,6-naphthyridine-3-carboxamido)acetic acid, Trifluoroacetic acid salt]: 0.05 to 0.1 µM; `Cn1c(=O)c(C(=O)N[C@@H](CO)C(=O)O)c(O)c2cc(C3=CCCCC3)cnc21` [Example 133, (S)-2-(6-cyclohexenyl-4-hydroxy-1-methyl-2-oxo-1,2-dihydro-1,8-naphthyridine-3-carboxamido)-3-hydroxypropanoic acid]: 0.5 to 1 µM.
